Measured values published in paper PMC12257073 (Cancer Research Communications, 2025).

System: p-H2AX
Assay: p-H2AX in peripheral blood by spectral flow cytometry
Assay type: in vivo, human
Details: cycle 1, CR (n = 2), CRh/CRi/MLFS (n = 8), SD, treatment failure or early death (n = 7)
Protocol: In brief, Ficoll-enriched peripheral blood mononuclear cells were stained for external markers, fixed, permeabilized, and then stained for p-H2AX (Thermo Fisher Scientific; AB_2896984). Sample analysis was performed in the Ohio State University Comprehensive Cancer Center Flow Cytometry Shared Resource and Immune Monitoring & Discovery Platform using the Cytek Aurora. Data were analyzed using FCS Express version 7 (De Novo Software).
Based on the observation that TP-0903 upregulates p-H2AX, a marker of DNA damage, in TP53-mutated cell lines ([24]), we hypothesized that p-H2AX could serve as a clinical biomarker for TP-0903 activity. Analysis of peripheral blood from days 1 and 10 of cycle 1 was performed by spectral flow cytometry. The mean fluorescence intensity was measured for p-H2AX, and then values at day 10 were normalized using baseline values collected on day 1 (Supplementary Fig. S4).

SMILES: CN1CCN(Cc2ccc(Nc3ncc(Cl)c(Nc4ccccc4S(=O)(=O)N(C)C)n3)cc2)CC1.O=C(O)C(O)C(O)C(=O)O.O=C(O)C(O)C(O)C(=O)O [TP-0903, 2-(5-chloro-2-(4-((4-methylpiperazin-1-yl)methyl)phenylamino)pyrimidin-4-yl)amino-N,N-dimethylbenzene-1-sulfonamide di-tartrate salt]
- Change in p-H2AX mean fluorescence intensity, day 10 normalized to day 1: no significant change
